From ChEMBL document CHEMBL4184185, “Dihydrobenzisoxazole-4-one compounds are novel selective inhibitors of aldosterone synthase (CYP11B2) with in vivo activity” (Bioorg Med Chem Lett, 2018)
The source made the active and inactive calls. The calls are words filed in the database; no cut-off is given here.

Columns and labels:
[1] = Inhibition of cynomolgus monkey adrenal mitochondrial CYP11B2 using corticosterone as substrate after 60 mins in presence of NADPH by mass spectrometric analysis
[2] = target: T1, Cytochrome P450 11B2, mitochondrial (Homo sapiens, UniProt P19099); test: Inhibition of recombinant human CYP11B2 expressed in Chinese hamster V79MZ cells assessed as reduction in aldosterone production at 20 uM by mass spectrometric method; type: cell-based
T1 sequence (P19099 whole entry): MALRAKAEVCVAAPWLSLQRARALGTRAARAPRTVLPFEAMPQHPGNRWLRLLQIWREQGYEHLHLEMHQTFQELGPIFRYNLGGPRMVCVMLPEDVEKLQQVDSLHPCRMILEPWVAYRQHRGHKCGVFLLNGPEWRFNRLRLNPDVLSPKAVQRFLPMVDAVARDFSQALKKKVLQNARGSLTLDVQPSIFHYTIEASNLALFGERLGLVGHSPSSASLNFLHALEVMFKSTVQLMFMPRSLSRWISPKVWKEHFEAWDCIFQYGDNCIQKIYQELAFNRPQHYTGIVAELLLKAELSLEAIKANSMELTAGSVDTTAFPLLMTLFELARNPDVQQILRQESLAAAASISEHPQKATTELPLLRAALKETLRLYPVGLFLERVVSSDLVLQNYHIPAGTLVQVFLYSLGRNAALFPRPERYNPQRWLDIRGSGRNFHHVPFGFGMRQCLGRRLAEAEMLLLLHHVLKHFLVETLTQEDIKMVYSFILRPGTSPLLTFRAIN

Macaca fascicularis [3] = species: Macaca fascicularis; test: Inhibition of cynomolgus monkey adrenal mitochondrial CYP11B2 at 1 uM using corticosterone as substrate after 60 mins in presence of NADPH by mass spectrometric analysis
[4] = Clearance in human liver microsomes relative to hepatic blood flow; type: ADME, microsome; conditions: read-out: CLH
[5] = Inhibition of cynomolgus monkey adrenal mitochondrial CYP11B1 using 11-deoxycortisol as substrate after 90 mins in presence of NADPH by mass spectrometric analysis
Macaca fascicularis [6] = species: Macaca fascicularis; test: Selectivity index, ratio of IC50 for cynomolgus monkey adrenal mitochondrial CYP11B1 to IC50 for cynomolgus monkey adrenal mitochondrial CYP11B2
[7] = target: T1, Cytochrome P450 11B2, mitochondrial; test: Inhibition of recombinant human CYP11B2 expressed in Chinese hamster V79MZ cells assessed as reduction in aldosterone production by mass spectrometric method; type: cell-based
Cynomolgus monkey = test: Clearance in iv dosed cynomolgus monkey relative to hepatic blood flow; type: ADME, organism-based, Macaca fascicularis; conditions: in vivo
Aromatase [8] = target: T2, Aromatase (Homo sapiens, UniProt P11511); test: Inhibition of CYP19A1 (unknown origin) at 20 uM
T2 sequence (P11511 whole entry): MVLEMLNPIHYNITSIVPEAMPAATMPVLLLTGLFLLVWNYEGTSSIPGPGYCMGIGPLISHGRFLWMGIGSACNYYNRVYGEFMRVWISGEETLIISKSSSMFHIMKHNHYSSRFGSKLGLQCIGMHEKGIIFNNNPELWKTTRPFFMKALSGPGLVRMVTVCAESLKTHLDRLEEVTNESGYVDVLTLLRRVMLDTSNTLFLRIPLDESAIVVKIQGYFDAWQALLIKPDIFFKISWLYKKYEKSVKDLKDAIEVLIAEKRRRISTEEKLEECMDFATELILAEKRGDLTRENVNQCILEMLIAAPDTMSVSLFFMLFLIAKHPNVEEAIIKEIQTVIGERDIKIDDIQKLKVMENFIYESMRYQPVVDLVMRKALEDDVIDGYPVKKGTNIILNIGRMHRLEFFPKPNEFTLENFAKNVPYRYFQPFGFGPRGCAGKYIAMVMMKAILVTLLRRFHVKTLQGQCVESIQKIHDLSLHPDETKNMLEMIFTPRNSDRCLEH

[9] = Oral bioavailability in Wistar Han rat; type: ADME, organism-based; conditions: in vivo
[10] = Drug metabolism in human hepatocytes assessed as parent compound remaining at 10 uM after 30 mins by LC-MS/MS analysis; type: ADME, cell-based, Hepatocyte; conditions: read-out: Stability
[11] = Clearance in cynomolgus monkey hepatocytes relative to hepatic blood flow; type: ADME, cell-based, Macaca fascicularis, Hepatocyte; conditions: read-out: CLH
Cytochrome P450 2D6 = Cytochrome P450 2D6 (Homo sapiens, UniProt P10635); test: Inhibition of CYP2D6 (unknown origin) at 30 uM; type: ADME
Sequence of Cytochrome P450 2D6 (P10635 whole entry): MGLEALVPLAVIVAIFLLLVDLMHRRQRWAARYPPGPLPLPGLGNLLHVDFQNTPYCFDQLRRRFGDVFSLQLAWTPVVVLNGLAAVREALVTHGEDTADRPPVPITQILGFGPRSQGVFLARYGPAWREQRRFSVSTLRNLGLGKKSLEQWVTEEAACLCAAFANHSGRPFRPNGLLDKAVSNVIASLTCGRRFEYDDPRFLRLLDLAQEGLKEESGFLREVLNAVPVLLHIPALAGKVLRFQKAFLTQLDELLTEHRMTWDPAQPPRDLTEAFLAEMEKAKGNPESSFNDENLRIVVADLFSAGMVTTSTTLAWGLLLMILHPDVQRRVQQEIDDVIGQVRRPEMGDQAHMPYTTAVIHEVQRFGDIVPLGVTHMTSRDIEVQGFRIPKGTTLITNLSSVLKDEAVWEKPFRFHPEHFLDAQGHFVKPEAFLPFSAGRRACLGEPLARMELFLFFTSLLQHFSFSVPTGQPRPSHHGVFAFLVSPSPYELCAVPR

Aromatase [12] = target: T2, Aromatase; test: Inhibition of CYP19A1 (unknown origin)
[13] = Clearance in Wistar Han rat hepatocytes relative to hepatic blood flow; type: ADME, cell-based, Hepatocyte; conditions: read-out: CLH
Rattus norvegicus = test: Clearance in iv dosed Wistar Han rat relative to hepatic blood flow; type: ADME, organism-based; conditions: in vivo
Cytochrome P450 3A4 = Cytochrome P450 3A4 (Homo sapiens, UniProt P08684); test: Inhibition of CYP3A4 (unknown origin) at 30 uM; type: ADME
Sequence of Cytochrome P450 3A4 (P08684 whole entry): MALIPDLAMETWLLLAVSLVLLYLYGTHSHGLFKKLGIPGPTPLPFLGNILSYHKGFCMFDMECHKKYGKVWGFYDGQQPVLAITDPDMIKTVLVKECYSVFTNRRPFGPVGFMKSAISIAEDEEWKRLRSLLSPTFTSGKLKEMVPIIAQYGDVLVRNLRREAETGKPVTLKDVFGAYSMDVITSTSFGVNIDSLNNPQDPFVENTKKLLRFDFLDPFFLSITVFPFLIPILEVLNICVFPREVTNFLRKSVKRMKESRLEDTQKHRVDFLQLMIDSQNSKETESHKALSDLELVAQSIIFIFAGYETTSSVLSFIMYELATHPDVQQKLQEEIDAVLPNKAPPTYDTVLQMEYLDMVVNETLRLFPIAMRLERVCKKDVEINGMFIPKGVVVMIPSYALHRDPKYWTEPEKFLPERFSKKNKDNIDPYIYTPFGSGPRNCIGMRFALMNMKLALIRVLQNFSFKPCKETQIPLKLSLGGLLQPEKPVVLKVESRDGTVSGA

Cytochrome P450 2C9 = Cytochrome P450 2C9 (Homo sapiens, UniProt P11712); test: Inhibition of CYP2C9 (unknown origin) at 30 uM; type: ADME
Sequence of Cytochrome P450 2C9 (P11712 whole entry): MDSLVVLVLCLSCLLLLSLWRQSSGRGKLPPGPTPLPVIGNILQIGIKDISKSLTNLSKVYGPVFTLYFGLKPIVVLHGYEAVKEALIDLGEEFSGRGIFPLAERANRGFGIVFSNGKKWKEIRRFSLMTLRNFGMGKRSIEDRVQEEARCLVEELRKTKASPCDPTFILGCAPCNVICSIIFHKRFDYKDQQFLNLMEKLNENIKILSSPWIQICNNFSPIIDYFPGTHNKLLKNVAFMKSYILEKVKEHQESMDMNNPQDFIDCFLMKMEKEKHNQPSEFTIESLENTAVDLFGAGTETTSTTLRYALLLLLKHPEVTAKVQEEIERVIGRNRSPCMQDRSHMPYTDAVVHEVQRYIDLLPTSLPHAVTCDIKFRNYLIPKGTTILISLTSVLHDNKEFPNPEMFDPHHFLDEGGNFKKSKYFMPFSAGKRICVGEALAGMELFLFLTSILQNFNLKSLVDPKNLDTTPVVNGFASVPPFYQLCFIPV

[14] = Clearance in human hepatocytes relative to hepatic blood flow; type: ADME, cell-based, Hepatocyte; conditions: read-out: CLH
[15] = target: T1, Cytochrome P450 11B2, mitochondrial; test: Inhibition of recombinant human CYP11B2 expressed in Chinese hamster V79MZ cells assessed as reduction in aldosterone production at 1 uM by mass spectrometric method; type: cell-based
[16] = target: T3, Steroid 17-alpha-hydroxylase/17,20 lyase (Homo sapiens, UniProt P05093); test: Inhibition of CYP17A1 (unknown origin); type: ADME
T3 sequence (P05093 whole entry): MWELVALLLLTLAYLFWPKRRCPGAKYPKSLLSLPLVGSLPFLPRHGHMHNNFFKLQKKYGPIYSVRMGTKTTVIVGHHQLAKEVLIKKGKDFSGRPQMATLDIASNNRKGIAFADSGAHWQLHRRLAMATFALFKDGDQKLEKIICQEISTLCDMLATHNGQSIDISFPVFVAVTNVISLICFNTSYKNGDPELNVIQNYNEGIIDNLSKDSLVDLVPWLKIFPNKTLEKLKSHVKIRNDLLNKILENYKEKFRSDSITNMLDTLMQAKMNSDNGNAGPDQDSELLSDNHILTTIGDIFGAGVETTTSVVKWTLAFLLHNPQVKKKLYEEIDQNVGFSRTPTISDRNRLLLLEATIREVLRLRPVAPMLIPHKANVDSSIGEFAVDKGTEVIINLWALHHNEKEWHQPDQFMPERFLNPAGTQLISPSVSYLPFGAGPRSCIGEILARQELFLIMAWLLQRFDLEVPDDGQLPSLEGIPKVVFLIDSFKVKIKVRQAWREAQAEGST

[17] = Drug metabolism in human hepatocytes at 10 uM after 30 mins by LC-MS/MS analysis; type: ADME, cell-based, Hepatocyte; conditions: read-out: Drug metabolism
[18] = Drug metabolism in human hepatocytes assessed as 3-(4-fluorobenzyl)-6,6-dimethyl-4,5,6,7-tetrahydrobenzo[c]isoxazol-4-ol formation at 10 uM after 30 mins by LC-MS/MS analysis; type: ADME, cell-based, Hepatocyte; conditions: 0.5 h
[19] = Drug metabolism in human hepatocytes assessed as 3-Amino-2-[2-(4-fluoro-phenyl)-acetyl]-5,5-dimethyl-cyclohex-2-enone metabolite formation at 10 uM after 30 mins by HPLC analysis; type: ADME, cell-based, Hepatocyte; conditions: 0.5 h
[20] = Drug metabolism in human hepatocytes assessed as 3-Amino-2-[2-(4-fluoro-phenyl)-acetyl]-5,5-dimethyl-cyclohex-2-enone metabolite formation at 10 uM after 30 mins by LC-MS/MS analysis; type: ADME, cell-based, Hepatocyte; conditions: 0.5 h
[21] = target: T3, Steroid 17-alpha-hydroxylase/17,20 lyase; test: Inhibition of CYP17A1 (unknown origin) at 20 uM; type: ADME
[22] = Clearance in Beagle dog hepatocytes relative to hepatic blood flow; type: ADME, cell-based, Canis lupus familiaris, Hepatocyte; conditions: read-out: CLH
Canis familiaris = test: Clearance in iv dosed Beagle dog relative to hepatic blood flow; type: ADME, organism-based, Canis lupus familiaris; conditions: in vivo
[23] = Oral bioavailability in Beagle dog; type: ADME, organism-based, Canis lupus familiaris; conditions: in vivo

Row | pIC50 [1] | hepatic extraction ratio [4] | pIC50 [5] | Ratio IC50 (Macaca fascicularis [6]) | Structure (SMILES) | further results
1 | 5.3 |  |  |  | Clc1ccc(-c2ccn[nH]2)cc1Cl | inhibition (INH) [2]: Not Active
2 | < 4.7 |  |  |  | Clc1ccc(-c2ccno2)cc1Cl | inhibition (INH) [2]: Not Active
3 | < 6 |  |  |  | CC1(C)CC(=O)c2c(n[nH]c2Cc2ccc(C#N)cc2)C1 | inhibition at 1 µM [15]: 54%
4 | 7.7 |  | 7.4 |  | N#Cc1ccc([C@H]2CCc3cncn32)c(F)c1 [OSILODROSTAT] | IC50 [16]: 3.98 µM
5 | 6.8 | < 0.24 | 5 | 64 | CN1CCN(C(=O)c2ccc(Cc3onc4c3C(=O)CC(C)(C)C4)cc2)CC1=O | inhibition (INH) (Aromatase [8]): Not Active; inhibition (INH) (Cytochrome P450 2D6): Not Active; IC50 (Aromatase [12]): > 31.6 µM; inhibition (INH) (Cytochrome P450 3A4): Not Active; inhibition (INH) (Cytochrome P450 2C9): Not Active; hepatic extraction ratio [14]: 0.41
6 | 6.8 | 0.37 | 5.5 | 17 | CC1(C)CCc2c(noc2Cc2ccc(C#N)cc2)C1 | 
7 | < 6 | 0.85 | 4.3 | < 53 | CC1(C)CC(=O)c2c(noc2-c2ccccc2)C1 | IC50 [16]: > 31.6 µM
8 | 7 | < 0.24 | 5 | 160 | CC1(C)CC(=O)c2c(noc2Cc2ccc(C(=O)N3CC[C@@H](O)C3)cc2)C1 | CL (Cynomolgus monkey): 75%; inhibition (INH) (Aromatase [8]): Not Active; bioavailability [9]: 11%; hepatic extraction ratio [22]: < 0.3; remaining at 0.5 h, 10 µM [10]: 98%; hepatic extraction ratio [11]: 0.28; inhibition (INH) (Cytochrome P450 2D6): Not Active; CL (Canis familiaris): 35%; IC50 (Aromatase [12]): > 20 µM; hepatic extraction ratio [13]: 0.52; CL (Rattus norvegicus): 31%; bioavailability [23]: 85%; inhibition (INH) (Cytochrome P450 3A4): Not Active; inhibition (INH) (Cytochrome P450 2C9): Not Active; hepatic extraction ratio [14]: < 0.24
9 | 6.7 | 0.38 | 5.1 | 39 | CC1CC(=O)c2c(noc2Cc2ccc(C#N)cc2)C1 (centres undefined) | 
10 | 7.1 | < 0.24 | 5.4 | 42 | CC1(C)CC(=O)c2c(noc2Cc2ccc(S(C)(=O)=O)cc2)C1 | IC50 [16]: > 31.6 µM; hepatic extraction ratio [14]: 0.59
11 | 6.8 | 0.83 | 5.6 | 15 | N#Cc1ccc(Cc2onc3c2C(=O)CC(C2CC2)C3)cc1 (centres undefined) | 

Further lines, the compound ahead of its results:

Row | Structure (SMILES) | pIC50 [1] | hepatic extraction ratio [4] | pIC50 [5] | Ratio IC50 (Macaca fascicularis [6]) | further results
12 | CC1(C)CC(=O)C(C(=O)Cc2ccc(F)cc2)=C(N)C1 |  |  |  |  | inhibition (Macaca fascicularis [3]): inactive
13 | CC1(C)CC(=O)c2c(noc2Cc2ccc(C#N)cc2)C1 | 7.1 | 0.55 | 4.1 | 940 | inhibition (INH) [7]: Active
14 | CC1(C)CC(=O)c2c(ncn2Cc2ccccc2)C1 | 7 |  |  |  | 
15 | CC1CC(=O)c2c(noc2Cc2ccccc2)C1 (centres undefined) | 7.6 | 0.73 | 5.5 | 130 | 
16 | CC1(C)CC(=O)c2c(noc2Cc2ccc(C(N)=O)cc2)C1 | 7 | 0.33 | 4.8 | 150 | CL (Cynomolgus monkey): 57%; inhibition (INH) (Aromatase [8]): Not Active; bioavailability [9]: 8%; remaining at 0.5 h, 10 µM [10]: 55%; hepatic extraction ratio [11]: 0.22; inhibition (INH) (Cytochrome P450 2D6): Not Active; IC50 (Aromatase [12]): > 20 µM; hepatic extraction ratio [13]: 0.6; CL (Rattus norvegicus): 62%; inhibition (INH) (Cytochrome P450 3A4): Not Active; inhibition (INH) (Cytochrome P450 2C9): Not Active; hepatic extraction ratio [14]: 0.33
17 | Clc1ccc(-n2ccnc2)cc1Cl | 7.2 |  |  |  | inhibition (INH) [2]: Not Active
18 | CC1(C)Cc2noc(Cc3ccc(F)cc3)c2C(O)C1 (centres undefined) |  |  |  |  | inhibition (Macaca fascicularis [3]): inactive
19 | CC1(C)CC(=O)c2c(noc2Cc2ccc(F)cc2)C1 | 6.8 | < 0.24 | 4.7 | 130 | metabolised at 0.5 h, 10 µM [17]: 72%; Drug metabolism [18]: Metabolite_Detected; remaining at 0.5 h, 10 µM [10]: 28%; Drug metabolism [19]: Metabolite_Detected; Drug metabolism [20]: Metabolite_Detected; hepatic extraction ratio [14]: 0.91
20 | CC1(C)CC(=O)c2c(noc2Cc2ccccc2)C1 | 7.1 | 0.64 | 5.1 | 100 | IC50 [1]: 0.079 µM; IC50 [16]: > 31.6 µM; inhibition (INH) (Aromatase [8]): Not Active; inhibition (INH) (Cytochrome P450 2D6): Not Active; IC50 (Aromatase [12]): > 31.6 µM; inhibition (INH) [7]: Active; inhibition (INH) [21]: Not Active; inhibition (INH) (Cytochrome P450 3A4): Not Active; inhibition (INH) (Cytochrome P450 2C9): Not Active
21 | CN1C(=O)CCc2cc(-c3cccnc3)ccc21 | 8.4 |  | 6 | 230 | IC50 [16]: 0.316 µM; IC50 (Aromatase [12]): 0.1 µM
22 | O=C1CCCc2noc(Cc3ccccc3)c21 | 6.1 | 0.73 | 4.6 | 32 | 
23 | COc1ccc(Cc2onc3c2C(=O)CC(C)(C)C3)cc1 | 7.8 | 0.86 | 5.8 | 95 | IC50 [16]: > 31.6 µM; IC50 (Aromatase [12]): > 31.6 µM
